Data: ChEMBL document CHEMBL1629583, “Establishment of in vitro susceptibility testing methodologies and comparative activities of piperacillin in combination with the penem {beta}-lactamase inhibitor BLI-489” (2009)
Values after ≈ are worked out from the molar mass of the structure shown.

How the values were obtained:
Format in all cases: functional
Parvimonas micra = assay: Antimicrobial activity against Peptostreptococcus micros clinical isolate after 18 to 22 hrs by broth microdilution method
Clostridium perfringens = assay: Antimicrobial activity against Clostridium perfringens clinical isolate after 18 to 22 hrs by broth microdilution method
Bacteroides fragilis = assay: Antimicrobial activity against Bacteroides fragilis clinical isolate after 18 to 22 hrs by broth microdilution method
[1] = system: Peptostreptococcus anaerobius; assay: Antimicrobial activity against Peptostreptococcus anaerobius clinical isolate after 18 to 22 hrs by broth microdilution method
[2] = system: Bacteroides thetaiotaomicron; assay: Antimicrobial activity against Bacteroides thetaiotaomicron clinical isolate after 18 to 22 hrs by broth microdilution method
Bacteroides uniformis = assay: Antimicrobial activity against Bacteroides uniformis clinical isolate after 18 to 22 hrs by broth microdilution method
Acinetobacter lwoffii = assay: Antimicrobial activity against Acinetobacter lwoffii clinical isolate after 18 to 22 hrs by broth microdilution method
Haemophilus influenzae [3] = assay: Antimicrobial activity against beta-lactamase-negative Haemophilus influenzae clinical isolate after 18 to 22 hrs by broth microdilution method
Serratia marcescens [4] = assay: Antimicrobial activity against Serratia marcescens clinical isolate after 18 to 22 hrs by broth microdilution method
Moraxella catarrhalis = assay: Antimicrobial activity against Moraxella catarrhalis clinical isolate after 18 to 22 hrs by broth microdilution method
Morganella morganii = assay: Antimicrobial activity against Morganella morganii clinical isolate after 18 to 22 hrs by broth microdilution method
Burkholderia cepacia = assay: Antimicrobial activity against Burkholderia cepacia clinical isolate after 18 to 22 hrs by broth microdilution method
Haemophilus influenzae [5] = assay: Antimicrobial activity against beta-lactamase-producing Haemophilus influenzae clinical isolate after 18 to 22 hrs by broth microdilution method
Enterobacter cloacae [6] = assay: Antimicrobial activity against AmpC beta-lactamase-producing Enterobacter cloacae clinical isolate after 18 to 22 hrs by broth microdilution method
Escherichia coli [7] = assay: Antimicrobial activity against Escherichia coli clinical isolate after 18 to 22 hrs by broth microdilution method
Klebsiella aerogenes [8] = assay: Antimicrobial activity against Enterobacter aerogenes clinical isolate after 18 to 22 hrs by broth microdilution method
Klebsiella pneumoniae [9] = assay: Antimicrobial activity against AmpC- producing Klebsiella pneumoniae clinical isolate after 18 to 22 hrs by broth microdilution method
Proteus vulgaris = assay: Antimicrobial activity against Proteus vulgaris clinical isolate after 18 to 22 hrs by broth microdilution method
Escherichia coli [10] = assay: Antimicrobial activity against AmpC beta-lactamase-producing Escherichia coli clinical isolate after 18 to 22 hrs by broth microdilution method
Klebsiella oxytoca = assay: Antimicrobial activity against Klebsiella oxytoca clinical isolate after 18 to 22 hrs by broth microdilution method
Serratia marcescens [11] = assay: Antimicrobial activity against AmpC beta-lactamase-producing Serratia marcescens clinical isolate after 18 to 22 hrs by broth microdilution method
Citrobacter koseri = assay: Antimicrobial activity against Citrobacter koseri clinical isolate after 18 to 22 hrs by broth microdilution method
Enterobacter cloacae [12] = assay: Antimicrobial activity against Enterobacter cloacae clinical isolate after 18 to 22 hrs by broth microdilution method
[13] = system: Stenotrophomonas maltophilia; assay: Antimicrobial activity against Stenotrophomonas maltophilia clinical isolate after 18 to 22 hrs by broth microdilution method
Escherichia coli [14] = assay: Antimicrobial activity against class A extended spectrum beta-lactamase- producing Escherichia coli clinical isolate after 18 to 22 hrs by broth microdilution method
Providencia rettgeri = assay: Antimicrobial activity against Providencia rettgeri clinical isolate after 18 to 22 hrs by broth microdilution method
Citrobacter freundii [15] = assay: Antimicrobial activity against AmpC beta-lactamase-producing Citrobacter freundii clinical isolate after 18 to 22 hrs by broth microdilution method
Acinetobacter johnsonii = assay: Antimicrobial activity against Acinetobacter johnsonii clinical isolate after 18 to 22 hrs by broth microdilution method
[16] = system: Acinetobacter haemolyticus; assay: Antimicrobial activity against Acinetobacter haemolyticus clinical isolate after 18 to 22 hrs by broth microdilution method
Acinetobacter baumannii = assay: Antimicrobial activity against Acinetobacter baumannii clinical isolate after 18 to 22 hrs by broth microdilution method
[17] = system: Haemophilus parainfluenzae; assay: Antimicrobial activity against Haemophilus parainfluenzae clinical isolate after 18 to 22 hrs by broth microdilution method
Escherichia coli [18] = assay: Antimicrobial activity against class A extended spectrum beta-lactamase- and class D OXA- producing Escherichia coli clinical isolate after 18 to 22 hrs by broth microdilution method
Klebsiella aerogenes [19] = assay: Antimicrobial activity against AmpC beta-lactamase-producing Enterobacter aerogenes clinical isolate after 18 to 22 hrs by broth microdilution method
Providencia stuartii = assay: Antimicrobial activity against Providencia stuartii clinical isolate after 18 to 22 hrs by broth microdilution method
Proteus mirabilis = assay: Antimicrobial activity against Proteus mirabilis clinical isolate after 18 to 22 hrs by broth microdilution method
Klebsiella pneumoniae [20] = assay: Antimicrobial activity against Klebsiella pneumoniae clinical isolate after 18 to 22 hrs by broth microdilution method
Klebsiella pneumoniae [21] = assay: Antimicrobial activity against class A extended spectrum beta-lactamase- producing Klebsiella pneumoniae clinical isolate after 18 to 22 hrs by broth microdilution method
Acinetobacter junii = assay: Antimicrobial activity against Acinetobacter junii clinical isolate after 18 to 22 hrs by broth microdilution method
Klebsiella pneumoniae [22] = assay: Antimicrobial activity against class A extended spectrum beta-lactamase- and class D OXA- producing Klebsiella pneumoniae clinical isolate after 18 to 22 hrs by broth microdilution method
Pseudomonas aeruginosa = assay: Antimicrobial activity against Pseudomonas aeruginosa clinical isolate after 18 to 22 hrs by broth microdilution method
[23] = system: Acinetobacter calcoaceticus; assay: Antimicrobial activity against Acinetobacter calcoaceticus clinical isolate after 18 to 22 hrs by broth microdilution method
Citrobacter freundii [24] = assay: Antimicrobial activity against Citrobacter freundii clinical isolate after 18 to 22 hrs by broth microdilution method

## CO[C@@]1(NC(=O)Cc2cccs2)C(=O)N2C(C(=O)O)=C(COC(N)=O)CS[C@@H]21 [CEFOXITIN]
Parvimonas micra
  MIC50: 0.5 mg/L (≈ 1.17 µM)
  MIC90: 0.5 mg/L (≈ 1.17 µM)
Clostridium perfringens
  MIC50: 1 mg/L (≈ 2.34 µM)
  MIC90: 2 mg/L (≈ 4.68 µM)
Bacteroides fragilis
  MIC50: 8 mg/L (≈ 18.7 µM)
  MIC90: 16 mg/L (≈ 37.4 µM)
[1]
  MIC50: 0.25 mg/L (≈ 0.585 µM)
  MIC90: 1 mg/L (≈ 2.34 µM)
[2]
  MIC: 16 mg/L (≈ 37.4 µM)
  MIC50: 16 mg/L (≈ 37.4 µM)
  MIC90: 32 mg/L (≈ 74.9 µM)
Bacteroides uniformis
  MIC50: 16 mg/L (≈ 37.4 µM)
  MIC90: 16 mg/L (≈ 37.4 µM)

## CO/N=C(\C(=O)N[C@@H]1C(=O)N2C(C(=O)O)=C(CSc3nc(=O)c(O)nn3C)CS[C@H]12)c1csc(N)n1 [CEFTRIAXONE]
Acinetobacter lwoffii
  MIC50: 2 mg/L (≈ 3.61 µM)
  MIC90: 8 mg/L (≈ 14.4 µM)
Haemophilus influenzae [3]
  MIC: ≤ 0.03 mg/L
  MIC50: ≤ 0.03 mg/L
  MIC90: ≤ 0.03 mg/L
Serratia marcescens [4]
  MIC50: 0.5 mg/L (≈ 0.902 µM)
  MIC90: > 32 mg/L
Moraxella catarrhalis
  MIC: ≤ 0.03 mg/L
  MIC50: ≤ 0.03 mg/L
  MIC90: 0.5 mg/L (≈ 0.902 µM)
Morganella morganii
  MIC50: 0.06 mg/L (≈ 0.108 µM)
  MIC90: 8 mg/L (≈ 14.4 µM)
Burkholderia cepacia
  MIC50: 32 mg/L (≈ 57.7 µM)
  MIC90: > 32 mg/L
Haemophilus influenzae [5]
  MIC: ≤ 0.03 mg/L
  MIC50: ≤ 0.03 mg/L
  MIC90: ≤ 0.03 mg/L
Enterobacter cloacae [6]
  MIC50: 32 mg/L (≈ 57.7 µM)
  MIC90: > 32 mg/L
Escherichia coli [7]
  MIC50: 0.06 mg/L (≈ 0.108 µM)
  MIC90: 0.06 mg/L (≈ 0.108 µM)
Klebsiella aerogenes [8]
  MIC50: 0.12 mg/L (≈ 0.216 µM)
  MIC90: > 32 mg/L
Klebsiella pneumoniae [9]
  MIC50: 32 mg/L (≈ 57.7 µM)
  MIC90: > 32 mg/L
Proteus vulgaris
  MIC50: 32 mg/L (≈ 57.7 µM)
  MIC90: > 32 mg/L
Escherichia coli [10]
  MIC50: > 32 mg/L
  MIC90: > 32 mg/L
Klebsiella oxytoca
  MIC50: 0.06 mg/L (≈ 0.108 µM)
  MIC90: 0.12 mg/L (≈ 0.216 µM)
Serratia marcescens [11]
  MIC50: 32 mg/L (≈ 57.7 µM)
  MIC90: > 32 mg/L
Citrobacter koseri
  MIC50: 0.06 mg/L (≈ 0.108 µM)
  MIC90: 0.25 mg/L (≈ 0.451 µM)
Enterobacter cloacae [12]
  MIC50: 0.5 mg/L (≈ 0.902 µM)
  MIC90: > 32 mg/L
[13]
  MIC: > 32 mg/L
  MIC50: > 32 mg/L
  MIC90: > 32 mg/L
Escherichia coli [14]
  MIC50: > 32 mg/L
  MIC90: > 32 mg/L
Providencia rettgeri
  MIC50: 0.06 mg/L (≈ 0.108 µM)
  MIC90: > 32 mg/L
Citrobacter freundii [15]
  MIC50: 32 mg/L (≈ 57.7 µM)
  MIC90: > 32 mg/L
Acinetobacter johnsonii
  MIC50: 2 mg/L (≈ 3.61 µM)
  MIC90: 8 mg/L (≈ 14.4 µM)
[16]
  MIC50: 2 mg/L (≈ 3.61 µM)
  MIC90: 8 mg/L (≈ 14.4 µM)
Acinetobacter baumannii
  MIC50: > 32 mg/L
  MIC90: > 32 mg/L
[17]
  MIC: ≤ 0.03 mg/L
  MIC50: ≤ 0.03 mg/L
  MIC90: ≤ 0.03 mg/L
Escherichia coli [18]
  MIC: > 32 mg/L
  MIC50: > 32 mg/L
  MIC90: > 32 mg/L
Klebsiella aerogenes [19]
  MIC50: 32 mg/L (≈ 57.7 µM)
  MIC90: > 32 mg/L
Providencia stuartii
  MIC50: 0.06 mg/L (≈ 0.108 µM)
  MIC90: > 32 mg/L
Proteus mirabilis
  MIC50: ≤ 0.03 mg/L
  MIC90: > 32 mg/L
Klebsiella pneumoniae [20]
  MIC50: 0.06 mg/L (≈ 0.108 µM)
  MIC90: 0.12 mg/L (≈ 0.216 µM)
Klebsiella pneumoniae [21]
  MIC50: > 32 mg/L
  MIC90: > 32 mg/L
Acinetobacter junii
  MIC50: 2 mg/L (≈ 3.61 µM)
  MIC90: 8 mg/L (≈ 14.4 µM)
Klebsiella pneumoniae [22]
  MIC50: > 32 mg/L
  MIC90: > 32 mg/L
Pseudomonas aeruginosa
  MIC50: > 32 mg/L
  MIC90: > 32 mg/L
[23]
  MIC50: > 32 mg/L
  MIC90: > 32 mg/L
Citrobacter freundii [24]
  MIC50: 0.5 mg/L (≈ 0.902 µM)
  MIC90: > 32 mg/L
